row,Structure (SMILES),melting point [°C]
1,"CCOc1cc(CCC(=O)O)ccc1OCCCc1cn(-c2ccc(C(F)(F)F)cn2)nc1OCC [Example 162, 3-[3-ethoxy-4-(3-{3-ethoxy-1-[5-(trifluoromethyl)-2-pyridyl]-1H-pyrazol-4-yl}propoxy)phenyl]propanoic acid]",114 to 115
2,"CCCOc1cc(CCC(=O)O)ccc1OCCCc1cn(-c2ccc(C(F)(F)F)cn2)nc1OCC [Example 163, 3-[4-(3-{3-ethoxy-1-[5-(trifluoromethyl)-2-pyridyl]-1H-pyrazol-4-yl}propoxy)-3-propoxyphenyl]propanoic acid]",106 to 107
3,"CCOc1nn(-c2ccc(C(F)(F)F)cn2)cc1CCCOc1ccc(CCC(=O)O)cc1OC(C)C [Example 164, 3-[4-(3-{3-ethoxy-1-[5-(trifluoromethyl)-2-pyridyl]-1H-pyrazol-4-yl}propoxy)-3-isopropoxyphenyl]propanoic acid]",93 to 94
4,"CCCCOc1cc(CCC(=O)O)ccc1OCCCc1cn(-c2ccc(C(F)(F)F)cn2)nc1OCC [Example 165, 3-[3-butoxy-4-(3-{3-ethoxy-1-[5-(trifluoromethyl)-2-pyridyl]-1H-pyrazol-4-yl}propoxy)phenyl]propanoic acid]",92 to 93
5,"CCOc1nn(-c2ccc(C(F)(F)F)cn2)cc1CCCOc1ccc(CCC(=O)O)cc1OCc1ccccc1 [Example 166, 3-[3-benzyloxy-4-(3-{3-ethoxy-1-[5-(trifluoromethyl)-2-pyridyl]-1H-pyrazol-4-yl}propoxy)phenyl]propanoic acid]",115 to 116
6,"CCOc1nn(-c2ccc(C(F)(F)F)cn2)cc1CCCOc1cc(CCC(=O)O)cc(OC)c1 [Example 167, 3-[5-(3-{3-ethoxy-1-[5-(trifluoromethyl)-2-pyridyl]-1H-pyrazol-4-yl}propoxy)-3-methoxyphenyl]propanoic acid]",99 to 100
7,"CCOc1cc(OCCCc2cn(-c3ccc(C(F)(F)F)cn3)nc2O)ccc1CCC(=O)OC [Example 171, methyl 3-[2-ethoxy-4-(3-{3-hydroxy-1-[5-(trifluoromethyl)-2-pyridyl]-1H-pyrazol-4-yl}propoxy)phenyl]propanoate]",147 to 148
8,"CC(C)c1nn(-c2ccc(C(F)(F)F)cn2)cc1COc1cccc(CC(=O)O)c1 [Example 176, 3-{3-isopropyl-1-[5-(trifluoromethyl)-2-pyridyl]-1H-pyrazol-4-yl}methoxyphenylacetic acid]",114 to 115
9,"CCOc1nn(-c2ccc(C(F)(F)F)cn2)cc1CCCOc1cccc(OC)c1CC(=O)O [Example 177, [6-(3-{3-ethoxy-1-[5-(trifluoromethyl)-2-pyridyl]-1H-pyrazol-4-yl}propoxy)-2-methoxyphenyl]acetic acid]",150 to 151
10,"CC(C)c1nn(-c2ccc(C(F)(F)F)cc2)cc1COc1cccc(CC(=O)O)c1 [Example 178, [3-({3-isopropyl-1-[4-(trifluoromethyl)phenyl]-1H-pyrazol-4-yl}methoxy)phenyl]acetic acid]",92 to 93
11,"COc1ccc(CC(=O)O)cc1OCCCc1cn(-c2ccc(C(F)(F)F)cn2)nc1C(C)C [Example 183, [3-(3-{3-isopropyl-1-[5-(trifluoromethyl)-2-pyridyl]-1H-pyrazol-4-yl}propoxy)-4-methoxyphenyl]acetic acid]",122 to 123
12,"O=C(O)Cc1cccc(OCc2cn(-c3ccc(C(F)(F)F)cn3)nc2C2CCCCC2)c1 [Example 187, [3-({3-cyclohexyl-1-[5-(trifluoromethyl)-2-pyridyl]-1H-pyrazol-4-yl}methoxy)phenyl]acetic acid]",129 to 130
13,"O=C(O)Cc1ccccc1OCc1cn(-c2ccc(C(F)(F)F)cn2)nc1C1CCCCC1 [Example 188, [2-({3-cyclohexyl-1-[5-(trifluoromethyl)-2-pyridyl]-1H-pyrazol-4-yl}methoxy)phenyl]acetic acid]",131 to 132
14,"O=C(O)CCc1cccc(OCc2cn(-c3ccc(C(F)(F)F)cn3)nc2C2CCCCC2)c1 [Example 191, 3-(3-{3-cyclohexyl-1-[5-(trifluoromethyl)-2-pyridyl]-1H-pyrazol-4-yl}methoxyphenyl)propionic acid]",94 to 95
15,"COc1cccc(CC(=O)O)c1OCCCc1cn(-c2nnc(C(F)(F)F)s2)nc1C(C)C [Example 194, [3-methoxy-2-(3-{3-(1-methylethyl)-1-[5-(trifluoromethyl)-1,3,4-thiadiazole-2-yl]-1H-pyrazol-4-yl}propoxy)phenyl]acetic acid]",144 to 145
16,"O=C(O)CCCc1cccc(OCc2cn(-c3ccc(C(F)(F)F)cn3)nc2C2CCCCC2)c1 [Example 195, 4-(3-{3-cyclohexyl-1-[5-(trifluoromethyl)-2-pyridyl]-1H-pyrazol-4-yl}methoxyphenyl)butanoic acid]",128 to 129
17,"CCCCc1nn(-c2ccc(C(F)(F)F)cn2)cc1CCCOc1nn(C)cc1CC(=O)O [Example 199, [3-(3-{3-butyl-1-[5-(trifluoromethyl)-2-pyridyl]-1H-pyrazol-4-yl}propoxy)-1-methyl-1H-pyrazol-4-yl]acetic acid]",125 to 126
18,"CCCCc1nn(-c2ccc(C(F)(F)F)cn2)cc1CCCOc1cc(CC(=O)O)ccc1OCC [Example 202, [3-(3-{3-butyl-1-[5-(trifluoromethyl)-2-pyridyl]-1H-pyrazol-4-yl}propoxy)-4-ethoxyphenyl]acetic acid]",105 to 106
19,"COc1cc(CC(=O)O)cc(OCCCc2cn(-c3ccc(C(F)(F)F)cn3)nc2C(C)C)c1 [Example 203, [3-(3-{3-isopropyl-1-[5-(trifluoromethyl)-2-pyridyl]-1H-pyrazol-4-yl}propoxy)-5-methoxyphenyl]acetic acid]",109 to 110
20,"COc1ccc(CC(=O)O)c(OCCCc2cn(-c3ccc(C(F)(F)F)cn3)nc2C(C)C)c1 [Example 205, [2-(3-{3-isopropyl-1-[5-(trifluoromethyl)-2-pyridyl]-1H-pyrazol-4-yl}propoxy)-4-methoxyphenyl]acetic acid]",143 to 144
21,"COc1ccc(OCCCc2cn(-c3ccc(C(F)(F)F)cn3)nc2C(C)C)c(CC(=O)O)c1 [Example 206, [2-(3-{3-isopropyl-1-[5-(trifluoromethyl)-2-pyridyl]-1H-pyrazol-4-yl}propoxy)-5-methoxyphenyl]acetic acid]",143 to 144
22,"COc1cccc(OCCCc2cn(-c3ccc(C(F)(F)F)cn3)nc2C(C)C)c1CC(=O)O [Example 208, [2-(3-{3-isopropyl-1-[5-(trifluoromethyl)-2-pyridyl]-1H-pyrazol-4-yl}propoxy)-6-methoxyphenyl]acetic acid]",183 to 184
23,"CCCc1nn(-c2ccc(C(F)(F)F)cn2)cc1CCCOc1c(F)cccc1CC(=O)O [Example 211, [3-fluoro-2-(3-{3-propyl-1-[5-(trifluoromethyl)-2-pyridyl]-1H-pyrazol-4-yl}propoxy)phenyl]acetic acid]",105 to 106
24,"CCC(C)c1nn(-c2ccc(C(F)(F)F)cn2)cc1CCCOc1c(C)cccc1CC(=O)O (stereo not drawn) [Example 219, [3-methyl-2-(3-{3-(1-methylpropyl)-1-[5-(trifluoromethyl)-2-pyridyl]-1H-pyrazol-4-yl}propoxy)phenyl]acetic acid]",134 to 135
